Values joined by “and” are separate entries in the source; they are usually repeats but may differ in a detail not shown here. Equal values may be shown once. Toxic doses and inconclusive results are not listed.

For the assay, the system named is P388 leukemia ip, CD2F1 mice, survival T/C. The assay can be described thus: NCI In Vivo Anticancer Drug Screen. Data for tumor model P388 Leukemia (intraperitoneal) in CD2F1 (CDF1) mice. The settings on record: endpoint: median survival time, higher = longer survival. An outline of the steps:
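Mice carrying the transplanted tumor received test compound or vehicle. Survival was recorded in each group, and the value is the treated-group measurement divided by that of the vehicle-treated control group.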

[1] abbreviates: dose: 6.25 mg/kg/injection, schedule: Q01DX009 (ip), vehicle: water.
The mark [2] stands for this setting: dose: 12.5 mg/kg/injection, schedule: Q01DX009 (ip), vehicle: water.
Setting [3] is: dose: 50.0 mg/kg/injection, schedule: Q01DX005 (ip), vehicle: saline with Tween-80.
[4] abbreviates: dose: 100.0 mg/kg/injection, schedule: Q01DX005 (ip), vehicle: saline with Tween-80.
The mark [5] stands for this setting: dose: 200.0 mg/kg/injection, schedule: Q01DX005 (ip), vehicle: saline with Tween-80.
Setting [6] is: dose: 50.0 mg/kg/injection, schedule: Q01DX005 (ip), vehicle: saline.
Setting [7] is: dose: 100.0 mg/kg/injection, schedule: Q01DX005 (ip), vehicle: saline.
Where [8] appears, read: dose: 200.0 mg/kg/injection, schedule: Q01DX005 (ip), vehicle: saline.
[9] abbreviates: dose: 50.0 mg/kg/injection, schedule: Q01DX005 (ip), vehicle: Klucel (hydroxypropylcellulose) (HPC).
[10] abbreviates: dose: 100.0 mg/kg/injection, schedule: Q01DX005 (ip), vehicle: Klucel (hydroxypropylcellulose) (HPC).
Setting [11] is: dose: 200.0 mg/kg/injection, schedule: Q01DX005 (ip), vehicle: Klucel (hydroxypropylcellulose) (HPC).
Where [12] appears, read: dose: 60.0 mg/kg/injection, schedule: Q01DX005 (ip), vehicle: saline with Tween-80.
[13] abbreviates: dose: 120.0 mg/kg/injection, schedule: Q01DX005 (ip), vehicle: saline with Tween-80.
Setting [14] is: dose: 240.0 mg/kg/injection, schedule: Q01DX005 (ip), vehicle: saline with Tween-80.

Take `O=NNc1cnc(Br)cn1`: the T/C was 97 % of control (dose: 3.13 mg/kg/injection, schedule: Q01DX009 (ip), vehicle: water); 101 % of control under setting [1]; 105 % of control and 108 % of control under setting [2]; 108 % of control and 118 % of control (dose: 25.0 mg/kg/injection, schedule: Q01DX009 (ip), vehicle: water); 167 % of control (dose: 100.0 mg/kg/injection, schedule: Q01DX009 (ip), vehicle: water).

With `CC[n+]1c([S-])nn(C)c1-c1cnccn1`, the T/C under setting [3] is 106 % of control, the T/C under setting [4] is 108 % of control and the T/C under setting [5] was 102 % of control.

For `O=C1NC2(CCCCC2)C(=O)N1CCCN(CCCl)CCCl`, the T/C is 121 % of control (dose: 1.5 mg/kg/injection, schedule: Q01DX005 (ip), vehicle: saline); 153 % of control and 156 % of control (dose: 6.0 mg/kg/injection, schedule: Q01DX005 (ip), vehicle: saline); 178 % of control and 200 % of control and 208 % of control (dose: 12.0 mg/kg/injection, schedule: Q01DX005 (ip), vehicle: saline); 162 % of control and 210 % of control (dose: 24.0 mg/kg/injection, schedule: Q01DX005 (ip), vehicle: saline).

Regarding `O=C(N1CCN(c2ccccc2)C1=O)N1CCN(c2ccccc2)C1=O`, the T/C by setting is: (dose: 50.0 mg/kg/injection, schedule: Q01DX009 (ip), vehicle: saline with Tween-80) 98 % of control; (dose: 100.0 mg/kg/injection, schedule: Q01DX009 (ip), vehicle: saline with Tween-80) 95 % of control; (dose: 200.0 mg/kg/injection, schedule: Q01DX009 (ip), vehicle: saline with Tween-80) 91 % of control.

For `CC(Nc1ncccn1)Nc1ncccn1`, the T/C (dose: 60.0 mg/kg/injection, schedule: Q01DX005 (ip), vehicle: Klucel (hydroxypropylcellulose) (HPC)) is 107 % of control; the T/C (dose: 120.0 mg/kg/injection, schedule: Q01DX005 (ip), vehicle: Klucel (hydroxypropylcellulose) (HPC)) is 102 % of control; the T/C (dose: 240.0 mg/kg/injection, schedule: Q01DX005 (ip), vehicle: Klucel (hydroxypropylcellulose) (HPC)) was 111 % of control.

Consider `CCCC1N[C@H](C(=O)O)CS1` (stereo not given in full), for which the T/C (dose: 50.0 mg/kg/injection, schedule: Q01DX001 (ip), vehicle: Klucel (hydroxypropylcellulose) (HPC)) was 100 % of control; the T/C (dose: 100.0 mg/kg/injection, schedule: Q01DX001 (ip), vehicle: Klucel (hydroxypropylcellulose) (HPC)) is 97 % of control; the T/C (dose: 200.0 mg/kg/injection, schedule: Q01DX001 (ip), vehicle: Klucel (hydroxypropylcellulose) (HPC)) is 102 % of control; the T/C (dose: 400.0 mg/kg/injection, schedule: Q01DX001 (ip), vehicle: Klucel (hydroxypropylcellulose) (HPC)) is 100 % of control.

Consider `Nc1nc(Br)c2ncn(C3OC(CO)C(O)C3O)c2n1` (stereo not given), for which the T/C reads like this: under setting [3], 101 % of control; under setting [4], 101 % of control; under setting [5], 94 % of control.

With `CC(=O)c1cccc(OC(=O)Nc2ccccc2)c1`, the T/C was 96 % of control under setting [3], 90 % of control under setting [4] and 98 % of control under setting [5].

Turning to `CNC(=O)Oc1ccc[nH]c1=O`, the T/C was 106 % of control and 110 % of control (dose: 16.0 mg/kg/injection, schedule: Q01DX009 (ip), vehicle: saline with Tween-80); 106 % of control and 112 % of control (dose: 25.0 mg/kg/injection, schedule: Q01DX009 (ip), vehicle: saline); 102 % of control and 109 % of control (dose: 25.0 mg/kg/injection, schedule: Q01DX009 (sc), vehicle: saline); 112 % of control and 122 % of control (dose: 32.0 mg/kg/injection, schedule: Q01DX009 (ip), vehicle: saline with Tween-80); 116 % of control and 120 % of control (dose: 50.0 mg/kg/injection, schedule: Q01DX009 (ip), vehicle: saline); 109 % of control and 115 % of control (dose: 50.0 mg/kg/injection, schedule: Q01DX009 (sc), vehicle: saline). For the same molecule, the T/C (dose: 64.0 mg/kg/injection, schedule: Q01DX009 (ip), vehicle: saline with Tween-80) is 120 % of control; the T/C (dose: 100.0 mg/kg/injection, schedule: Q01DX009 (sc), vehicle: saline) is 111 % of control and 113 % of control; the T/C (dose: 128.0 mg/kg/injection, schedule: Q01DX009 (ip), vehicle: saline with Tween-80) was 120 % of control; the T/C (dose: 200.0 mg/kg/injection, schedule: Q01DX009 (sc), vehicle: saline) was 115 % of control and 120 % of control; the T/C (dose: 400.0 mg/kg/injection, schedule: Q01DX009 (ip), vehicle: saline) was 153 % of control; the T/C (dose: 400.0 mg/kg/injection, schedule: Q01DX009 (sc), vehicle: saline) is 122 % of control.

Regarding `CCCCCCCCCCCCCCCCS(=O)(=O)N/N=C(/C)N(C)c1ccc(OC)cc1`, the T/C was 107 % of control (dose: 50.0 mg/kg/injection, schedule: Q01DX009 (ip), vehicle: Klucel (hydroxypropylcellulose) (HPC)); 107 % of control (dose: 100.0 mg/kg/injection, schedule: Q01DX009 (ip), vehicle: Klucel (hydroxypropylcellulose) (HPC)); 111 % of control (dose: 200.0 mg/kg/injection, schedule: Q01DX009 (ip), vehicle: Klucel (hydroxypropylcellulose) (HPC)).

For `NNC(=O)C(N)Cc1ccc(O)cc1` (stereo not given), the T/C under setting [6] is 100 % of control, the T/C under setting [7] is 103 % of control and the T/C under setting [8] is 115 % of control.

In the case of `NC1(C(=O)O)CCc2ccccc2C1` (stereo not given), the T/C runs as follows: under setting [9], 104 % of control; under setting [10], 102 % of control; under setting [11], 100 % of control.

For the molecule `O=C1NC(=O)c2ccc3c4c(ccc1c24)C(=O)NC3=O`, the T/C (dose: 15.5 mg/kg/injection, schedule: Q01DX009 (ip), vehicle: saline with Tween-80) is 95 % of control; the T/C (dose: 31.0 mg/kg/injection, schedule: Q01DX009 (ip), vehicle: saline with Tween-80) is 95 % of control; the T/C (dose: 62.0 mg/kg/injection, schedule: Q01DX009 (ip), vehicle: saline with Tween-80) is 91 % of control.

Turning to `Cc1ccc(NC(=O)Oc2ccc([N+](=O)[O-])cc2)cc1S(=O)(=O)F`, the T/C was 113 % of control under setting [12], 104 % of control under setting [13] and 95 % of control under setting [14].

For `Cc1c2occc2cc2c1oc(=O)c1cnccc12`, the T/C is 105 % of control under setting [9], 100 % of control under setting [10] and 98 % of control under setting [11].

On to `COC(=O)c1c(C(=O)Nc2ccc(Cl)cc2)c(C)n(NC(N)=O)c1C`, for which the T/C under setting [3] was 95 % of control, the T/C under setting [4] is 95 % of control and the T/C under setting [5] was 101 % of control.

Consider `N=c1nc(-c2ccccc2)c(-c2ccccc2)nn1CC(=O)c1ccccc1`, for which the T/C under setting [9] was 112 % of control, the T/C under setting [10] is 101 % of control and the T/C under setting [11] is 94 % of control.

Take `COc1cc(C2CC(C)(O)Oc3cc4c(cc32)OCO4)cc(OC)c1O` (stereo not given): the T/C was 95 % of control under setting [12], 98 % of control under setting [13] and 95 % of control under setting [14].

Turning to `COC(=O)C1C(OCc2ccccc2)C2CCC1(OC)C=C2C` (stereo not given), the T/C reads like this: (dose: 100.0 mg/kg/injection, schedule: Q04DX002 (ip), vehicle: saline with Tween-80) 91 % of control; (dose: 200.0 mg/kg/injection, schedule: Q04DX002 (ip), vehicle: saline with Tween-80) 98 % of control; (dose: 400.0 mg/kg/injection, schedule: Q04DX002 (ip), vehicle: saline with Tween-80) 91 % of control.

As for `CN1CC2(CO)C(c3ccccn3)N(C)C(c3ccccn3)C(CO)(C1)C2O` (stereo not given), the T/C under setting [12] is 107 % of control and the T/C under setting [13] is 104 % of control.

As for `Nc1nnc(-c2ccc(-c3nnc(N)o3)cc2)o1`, the T/C under setting [12] was 98 % of control, the T/C under setting [13] was 100 % of control and the T/C under setting [14] was 100 % of control.

On to `O=NNc1ccc(Sc2ccc(NN=O)nc2)cc1`, for which the T/C is, setting by setting: (dose: 3.12 mg/kg/injection, schedule: Q01DX009 (ip), vehicle: water) 124 % of control; under setting [1], 123 % of control; under setting [2], 100 % of control.

As for `CCCCCCCCN1COC2CCc3ccccc3C21` (stereo not given), the T/C by setting is: under setting [6], 100 % of control; under setting [7], 101 % of control; under setting [8], 100 % of control.

For the molecule `CC(NCc1ccccc1)[Si](C)(C)C` (stereo not given), the T/C is, setting by setting: under setting [3], 102 % of control; under setting [4], 105 % of control.

As for `O=C(Nc1ccc(NC(=O)Nc2ccc(C3=NCCN3)cc2)cc1)Nc1ccc(C2=NCCN2)cc1`, the T/C by setting is: (dose: 110.0 mg/kg/injection, schedule: Q01DX010 (ip), vehicle: saline) 118 % of control; (dose: 165.0 mg/kg/injection, schedule: Q01DX010 (ip), vehicle: saline) 118 % of control.

These data come from PubChem BioAssay AID330 (DTP/NCI, 2004).
